Data published in patent publication US7625838B2, “[1, 2, 4] Triazolo [1, 5-A] pyrimidine derivatives as chromatographic adsorbent for the selective adsorption of IGG” (GE Healthcare Bio-Sciences AB, priority 2005, dated 2009).

Tests used:
Format in all cases: binding
[1] = tested on: two different monoclonal antibodies (MAbs) and a commercially available Fc-fragment; assay: STD NMR screening for affinity towards IgG related proteins
Protocol: (§1) The screening procedure was based on in vitro screening using two independent in solution analytical techniques relying on saturation difference transfer NMR (STD NMR) and Surface Plasmon Resonace (SPR) methods.
In the NMR screen 69 substances were tested for affinity towards two different monoclonal antibodies (MAbs) and a commercially available Fc-fragment. Unspecific protein binding was investigated by testing for affinity towards α-amylase. Compounds that were found having affinity towards all three IgG related proteins, but no affinity towards α-amylase were assigned as potential candidates for affinity ligands towards the Fc-part of IgG.
(§2) Further structures (commercially available compounds) surrounding compound I were investigated in solution in order to optimize the affinity ligand candidate. These compounds were subject to a corresponding SPR and NMR analysis for affinity as was presented above. However this time only the Fc-fragment was used in the NMR screening while the SPR analysis was performed with the corresponding test proteins as in the first selection.

[2] = tested on: monoclonal antibody (IgG); assay: SPR screen, monoclonal antibody
Protocol: as §1
(§3) In the SPR screen 53 compounds were tested (non-soluble substances were excluded) for affinity towards a monoclonal antibody and a commercially available Fc-fragment. Analysis data were corrected for the different molecular weights and are presented as percentage of the theoretical maximal response.
(§4) In order to select potential candidates for further investigations SPR data were arranged in such a way that all substances with a response higher than 10% for both Fc fragment and IgG were selected as potential candidates. These compounds were compared with the ones indicated by the NMR-screening. It turned out that most of the SPR derived hits had been rejected in NMR screen due to unspecific binding towards α-amylase.
as §2

Fc-fragment = assay: SPR screen, Fc-fragment
Protocol: as §1, §3, §4, §2

| SMILES | NMR affinity ([1]; second selection, only the Fc-fragment used in the NMR screening) | ranking for affinity towards IgG molecule as indicated by SPR ([2]; second selection) | ranking for affinity towards Fc-fragment by SPR (Fc-fragment; second selection) | outcome of NMR screen (affinity towards all three IgG related proteins, no affinity towards α-amylase) ([1]; STD NMR, two MAbs and Fc-fragment) | SPR response, percentage of the theoretical maximal response ([2]; IgG (monoclonal antibody), corrected for molecular weight) | SPR response, percentage of the theoretical maximal response (Fc-fragment; Fc fragment, corrected for molecular weight) |
| --- | --- | --- | --- | --- | --- | --- |
| CCOC(=O)c1c[nH]c2ncnn2c1=O [Compound II] | positive by NMR | high ranking | at least medium ranking |  |  |  |
| CC(=O)Nc1nc2[nH]c(C)c(Cc3ccccc3)c(=O)n2n1 [Compound I] |  |  |  | selected as potential affinity candidate by both methods | higher than 10% | higher than 10% |
